Data: publication PMC5503534, “Stable aneuploid tumors cells are more sensitive to TTK inhibition than chromosomally unstable cell lines” (Oncotarget, 2017)
Read-outs that look alike come from different tables or passages of the source.

Key:
[1] = tested on: HCT 116 colon carcinoma cell line; experiment: Cell proliferation assay (ATPlite), HCT 116; format: cell-based, human; conditions: for Eff. (%): HCT 116, five days, maximum inhibitory effect, average of three experiments; for IC50: HCT 116 near-diploid, five days, geometric average of three experiments (Suppl. Table 2A)
Protocol: (§1) Cell proliferation assays were carried out as described using ATPlite 1step™ (Perkin Elmer, Groningen, The Netherlands). Exposure time was 72 or 120 hours as indicated in the Legends to the Figures. Percentage growth was calculated, relative to the growth of unexposed cells, and relative IC50s were fitted using a four-parameter logistics curve (XLfit 5.3, IDBS). For Figure 4A and 7 dose response curves were redrawn in Prism. To compare the inhibitory potency of compounds in proliferation assays with HCT 116 parental and tetraploid clones, pIC50 (−^10logIC50) values were compared in three independent experiments. A two-tailed Student's t-test was performed to determine whether differences in sensitivity (ΔpIC50) were statistically significant. Caspase 3/7 activity of cancer cells was measured using Caspase-Glo 3/7 Assay kit (cat no. G8093, Promega, Madison USA). Viability of T-ALL cell samples was determined using ATPlite and exposure of 72 hours as described previously.

[2] = tested on: post-tetraploid HPT1 cells; experiment: Cell proliferation assay, post-tetraploid HPT1; format: cell-based, human; conditions: HPT1, five days; for Efficacy (%): average of three experiments; for IC50: geometric average of three experiments
Protocol: (§2) Cancer cell lines and hTERT-RPE1 retinal pigment epithelial cells were purchased from the American Type Culture Collection (ATCC) (Manassas, VA, U.S.A.) from 2011 to 2014 [41] and cultured in ATCC-recommended media. All experiments were carried out within nine passages of the original vials from ATCC who authenticated the cancer cell lines by short tandem repeat analysis. We verified the mutant status of seven frequently mutated cancer genes (i.e., BRAF, CDKN2A, CTNNB1, EGFR, KRAS, PIK3CA and TP53) by full exome or targeted sequencing. Sequencing results were compared to COSMIC version 75 of the Genomics of Drug Sensitivity in Cancer data base and provided additional authentication of the identity of the cell lines. The isolation and characterization of post-tetraploid clones from HCT 116 has been described previously. The mutation status of the CDKN2A, CTNNB1, KRAS and PIK3CA genes were confirmed by sequence analysis in both the HCT 116 parental cell line and post-tetraploid clones. All experiments were carried out within nine passages of the original cell stocks that were transferred from the Max Planck Institute of Biochemistry (Martinsried, Germany) to Netherlands Translational Research Center.
as §1

[3] = tested on: post-tetraploid HPT2 cells; experiment: Cell proliferation assay, post-tetraploid HPT2; format: cell-based, human; conditions: HPT2, five days; for Efficacy (%): average of three experiments; for IC50: geometric average of three experiments
Protocol: as §2, §1

[4] = tested on: post-tetraploid HPT4 cells; experiment: Cell proliferation assay, post-tetraploid HPT4; format: cell-based, human; conditions: HPT4, five days; for Efficacy (%): average of three experiments; for IC50: geometric average of three experiments
Protocol: as §2, §1

[5] = tested on: HCT 116 vs HPT1, -2 and -4; experiment: Drug sensitivity analysis, HCT116 diploid versus tetraploids; format: cell-based, human; conditions: for Δeff. (%) / Phenotype (potency): HCT 116 vs HPT1, -2 and -4; for Phenotype (efficacy): HCT 116 vs HPT1, -2 and -4, based on % effect; for Phenotype (potency): 'resistant' indicates that tetraploids are resistant; for ΔpIC50: average log shift in sensitivity between parental and tetraploids
Protocol: as §1

full-length Aurora B = molecular target: T1, full-length Aurora B (Homo sapiens, UniProt Q96GD4); experiment: Surface plasmon resonance binding kinetics, Aurora B; conditions: SPR, geometric average
T1 construct: to the kinase domain of TTK and full-length Aurora B; purchased Carna Biosciences, Inc., Kobe, Japan; host or cells: Sf9 insect cells
From the text: Originally, the compound was identified in a phenotypic screen for molecules that can induce stem-cell like phenotypes. Later this property was attributed to its ability to inhibit the mitotic kinase Aurora B [39].

[6] = tested on: HCT 116 colon carcinoma cell line; conditions: three day cell proliferation assay; cited from earlier work
[7] = tested on: LoVo colorectal adenocarcinoma cell line; conditions: three day cell proliferation assay; cited from earlier work
[8] = tested on: A-172 glioblastoma cell line; conditions: three day cell proliferation assay; cited from earlier work
[9] = tested on: DoTc2 4510 cervix carcinoma cell line; conditions: three day cell proliferation assay; cited from earlier work
[10] = tested on: MG-63 osteosarcoma cell line; conditions: three day cell proliferation assay; cited from earlier work
[11] = tested on: OVCAR-3 ovary adenocarcinoma cell line; conditions: three day cell proliferation assay; cited from earlier work
[12] = tested on: 66 cancer cell lines (44 cell lines); set-up: method as in earlier work; conditions: 3 days; geometric average in 44 cell lines; cited from earlier work
[13] = tested on: pediatric T-ALL patient cell samples; experiment: Viability assays with T-ALL patient samples; format: cell-based, human; conditions: Homo sapiens, 72 h
Protocol: Written informed consent was obtained from the parents or legal guardians of each T-ALL patient to use excess diagnostic material for research purposes. The study was performed in accordance with the Institutional Review Board of the Erasmus Medical Center Rotterdam (The Netherlands) and in accordance with the Declaration of Helsinki. Leukemic cells were harvested from blood or bone marrow samples and were enriched to ≥ 90% purity.
as §1

[14] = mouse, in vivo; cited from earlier work

T1 sequence (Q96GD4 whole entry, the tested form may be a part): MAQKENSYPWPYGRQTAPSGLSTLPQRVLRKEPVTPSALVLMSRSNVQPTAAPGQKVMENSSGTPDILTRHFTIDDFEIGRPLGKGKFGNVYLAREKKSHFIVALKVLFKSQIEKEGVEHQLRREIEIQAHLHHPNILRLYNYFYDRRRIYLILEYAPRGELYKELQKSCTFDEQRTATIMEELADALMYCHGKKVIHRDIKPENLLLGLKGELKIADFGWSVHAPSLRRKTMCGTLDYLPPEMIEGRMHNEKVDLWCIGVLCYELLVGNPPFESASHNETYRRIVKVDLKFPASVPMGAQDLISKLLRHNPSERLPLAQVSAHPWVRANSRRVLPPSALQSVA

| SMILES | Eff. (%) [1] [%] | IC50 ([1]; Homo sapiens, 120 h) [nM] | Efficacy (%) [2] [%] | IC50 ([2]; Homo sapiens, 120 h) [nM] | Efficacy (%) [3] [%] | IC50 ([3]; Homo sapiens, 120 h) [nM] | Efficacy (%) [4] [%] | IC50 ([4]; Homo sapiens, 120 h) [nM] | Δeff. (%) [5] [%] | Phenotype (efficacy) [5] | Phenotype (potency) [5] | ΔpIC50 [5] | IC50 [6] [nM] | IC50 [7] [nM] | IC50 [8] [nM] | IC50 [9] [nM] | IC50 [10] [nM] | IC50 [11] [nM] | further results |
| --- | --- | --- | --- | --- | --- | --- | --- | --- | --- | --- | --- | --- | --- | --- | --- | --- | --- | --- | --- |
| CCn1cc(-c2ccnc3[nH]c(-c4cccc(CN(C)C)c4)cc23)c(-c2ccc(NC(=O)N(C)C)cc2)n1 [GSK-1070916] | 61 | 14 | 32 | 16 | 100 | 1700 | 100 | 1680 | 16 | sensitive | resistant | 1.41 | – | – | – | – | – | – | – |
| O=C(O)c1ccc(Nc2ncc3c(n2)-c2ccc(Cl)cc2C(c2c(F)cccc2F)=NC3)cc1 [MLN-8054] | 85 | 715 | 61 | 1330 | 52 | 1550 | 56 | 1200 | −28 | resistant | resistant | 0.28 | – | – | – | – | – | – | – |
| Cc1cc(N2CCOCC2)ccc1Nc1nc(NC2CCCCC2)c2[nH]cnc2n1 [MPI-047605] | 72 | – | 52 | – | 46 | – | 51 | – | −22 | resistant | sensitive | −0.07 | 234 | 220 | 198 | 8390 | 899 | 7330 | ka (full-length Aurora B): 9550 M⁻¹ s⁻¹; kd (full-length Aurora B): 0.291 s⁻¹; IC50 [1]: 233 nM; IC50 [2]: 208 nM; IC50 [3]: 199 nM; IC50 [4]: 191 nM; IC50 [12]: 448 nM |
| N[C@@H](CSC(c1ccccc1)(c1ccccc1)c1ccccc1)C(=O)O [STLC, S-trityl-L-cysteine] | 99 | – | 90 | 2040 | 93 | 1340 | 95 | 1400 | −6 | resistant | resistant | 0.34 | – | – | – | – | – | – | – |
| CC(C)C[C@H](NC(=O)[C@H](Cc1ccccc1)NC(=O)c1cnccn1)B(O)O [bortezomib] | – | – | – | – | – | – | – | – | – | – | – | – | – | – | – | – | – | – | IC50 ([13]; all ten T-ALL patient samples, three days, read-out: IC50): < 10 nM; IC50 ([13]; patient sample 491, three-day assay, read-out: IC50): 3 nM; IC50 ([13]; patient sample 1033, three-day assay, read-out: IC50): 3 nM; IC50 ([13]; patient sample 1816, three-day assay, read-out: IC50): 2 nM; IC50 ([13]; patient sample 2323, three-day assay, read-out: IC50): 3 nM; IC50 ([13]; patient sample 3594, three-day assay, read-out: IC50): 4 nM; IC50 ([13]; patient sample 3852, three-day assay, read-out: IC50): 4 nM; IC50 ([13]; patient sample 4023, three-day assay, read-out: IC50): 3 nM; IC50 ([13]; patient sample 4126, three-day assay, read-out: IC50): 3 nM; IC50 ([13]; patient sample 4992, three-day assay, read-out: IC50): 3 nM; IC50 ([13]; patient sample 10110, three-day assay, read-out: IC50): 3 nM |
| N.N.[Cl][Pt][Cl] [cisplatin] | – | – | – | – | – | – | – | – | – | – | – | – | 6210 | 6730 | 15900 | 7400 | 4510 | 11300 | – |
| CN(C)/N=N/c1[nH]cnc1C(N)=O [dacarbazine] | – | – | – | – | – | – | – | – | – | – | – | – | 18600 | 5290 | 31600 | 3090 | 16000 | 13900 | – |
| COc1cccc2c1C(=O)c1c(O)c3c(c(O)c1C2=O)C[C@@](O)(C(C)=O)C[C@@H]3O[C@H]1C[C@H](N)[C@H](O)[C@H](C)O1 [daunorubicin] | – | – | – | – | – | – | – | – | – | – | – | – | – | – | – | – | – | – | IC50 ([13]; all ten T-ALL patient samples, three days): < 100 nM; IC50 ([13]; patient sample 491, three-day assay): 80 nM; IC50 ([13]; patient sample 1033, three-day assay): 43 nM; IC50 ([13]; patient sample 1816, three-day assay): 38 nM; IC50 ([13]; patient sample 2323, three-day assay): 80 nM; IC50 ([13]; patient sample 3594, three-day assay): 43 nM; IC50 ([13]; patient sample 3852, three-day assay): 61 nM; IC50 ([13]; patient sample 4023, three-day assay): 57 nM; IC50 ([13]; patient sample 4126, three-day assay): 71 nM; IC50 ([13]; patient sample 4992, three-day assay): 41 nM; IC50 ([13]; patient sample 10110, three-day assay): 42 nM |
| CC(=O)O[C@@]12CO[C@@H]1C[C@H](O)[C@@]1(C)C(=O)[C@H](O)C3=C(C)[C@@H](OC(=O)[C@H](O)[C@@H](NC(=O)OC(C)(C)C)c4ccccc4)C[C@@](O)([C@@H](OC(=O)c4ccccc4)[C@H]21)C3(C)C [docetaxel] | – | – | – | – | – | – | – | – | – | – | – | – | 2 | 8 | 3 | 3 | 1 | 4 | effect on bone marrow or blood cell count (hematological toxicity) [14]: hematological toxicity was seen |
| COc1cccc2c1C(=O)c1c(O)c3c(c(O)c1C2=O)C[C@@](O)(C(=O)CO)C[C@@H]3O[C@H]1C[C@H](N)[C@H](O)[C@H](C)O1 [doxorubicin] | 97 | 31 | 99 | 69 | 100 | 130 | 100 | 83 | 3 | sensitive | resistant | 0.46 | – | – | – | – | – | – | – |
| CC(=O)O[C@H]1C(=O)[C@@]2(C)[C@H]([C@H](OC(=O)c3ccccc3)[C@]3(O)C[C@H](OC(=O)[C@H](O)[C@@H](NC(=O)c4ccccc4)c4ccccc4)C(C)=C1C3(C)C)[C@]1(OC(C)=O)CO[C@@H]1C[C@@H]2O [paclitaxel] | – | – | – | – | – | – | – | – | – | – | – | – | 5 | 23 | 17 | 10 | 6 | 26 | – |
| CC[C@@H]1C(=O)N(C)c2cnc(Nc3ccc(C(=O)N[C@H]4CC[C@H](N5CCN(CC6CC6)CC5)CC4)cc3OC)nc2N1C(C)C [volasertib] | 98 | 25 | 82 | 26 | 65 | 45 | 84 | 49 | −21 | resistant | resistant | 0.19 | – | – | – | – | – | – | – |
